Data: US7781591B2, “Substituted 3-cyanopyridines as protein kinase inhibitors” (Wyeth LLC, priority 2006, dated 2010)

The compounds below were run against T1, human PKCθ full length enzyme (Homo sapiens, UniProt Q04759) (assay: PKCθ IMAP assay (fluorescence polarization)). Settings: not given.
T1 construct: human PKCθ full length enzyme (Panvera Cat# P2996); purchased Panvera P2996
Format: biochemical
Procedure: The reaction buffer was prepared by diluting the 5× stock reaction buffer and adding DTT to obtain a concentration of 3.0 mM. […] The final concentration of compound was 2× and 10% DMSO. DMSO was added to the rest of the master mix to increase the concentration to 10%. 10 μl of the master mix containing 10% DMSO was added to the rest of the wells on the plate except the 2nd column. 20 μl was transferred from the first column to the 2nd column. The compounds were serially diluted in 2:1 ratio starting from the 2nd column. A 2× ([…]) PKCθ solution was made in the reaction buffer. 10 μl of the PKCθ solution was added to every well to achieve these final concentrations: PKCθ—1 nM; ATP—6 μM; peptide—100 nM; DMSO—5%. Samples were incubated for 25 minutes at room temperature. The binding reagent was prepared by diluting the beads in 1× binding buffer to 800:1. 50 μl of the binding reagent was added to every well and incubated for 20 minutes. FP was measured using Envision2100 (PerkinElmer Life Sciences). Wells with no ATPs and wells with no enzymes were used as controls.

T1 sequence (Q04759 whole entry): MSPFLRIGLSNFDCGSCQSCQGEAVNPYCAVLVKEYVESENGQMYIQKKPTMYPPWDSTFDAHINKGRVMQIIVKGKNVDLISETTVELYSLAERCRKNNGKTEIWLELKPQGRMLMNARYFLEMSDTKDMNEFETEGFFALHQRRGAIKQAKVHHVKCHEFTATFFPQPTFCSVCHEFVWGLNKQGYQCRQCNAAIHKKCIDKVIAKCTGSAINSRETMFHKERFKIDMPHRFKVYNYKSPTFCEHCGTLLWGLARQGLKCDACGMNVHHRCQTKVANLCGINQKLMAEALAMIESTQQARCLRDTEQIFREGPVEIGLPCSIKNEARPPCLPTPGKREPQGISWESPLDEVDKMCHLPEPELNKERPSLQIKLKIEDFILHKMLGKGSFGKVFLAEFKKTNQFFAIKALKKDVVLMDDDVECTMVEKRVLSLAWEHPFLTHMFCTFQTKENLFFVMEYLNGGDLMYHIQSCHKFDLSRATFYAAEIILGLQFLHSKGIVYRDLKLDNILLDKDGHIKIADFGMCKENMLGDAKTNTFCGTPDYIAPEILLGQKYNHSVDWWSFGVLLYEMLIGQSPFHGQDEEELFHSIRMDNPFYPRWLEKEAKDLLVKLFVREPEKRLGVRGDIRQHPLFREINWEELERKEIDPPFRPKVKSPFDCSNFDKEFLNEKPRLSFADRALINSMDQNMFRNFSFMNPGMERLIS

SMILES | IC50
COc1ccc(-c2cncc(C#N)c2-c2ccc3[nH]ccc3c2)cc1OC [Compound 221, 5-(3,4-dimethoxyphenyl)-4-(1H-indol-5-yl)nicotinonitrile] | 1750 nM

Same assay, conditions: human PKCθ full length enzyme, IMAP; average value; read-out: IC50 PKCθ IMAP

SMILES | IC50
N#Cc1cncc(-c2cccc(-c3ccc(C(=O)NCCO)cc3)c2)c1Nc1cccc2[nH]ccc12 [Compound 216, 3′-[5-cyano-4-(1H-indol-4-ylamino)pyridin-3-yl]-N-(2-hydroxyethyl)biphenyl-4-carboxamide] | 50 nM
COc1ccc(-c2cncc(C#N)c2Nc2ccc3[nH]ccc3c2C)cc1OC [Compound 218, 5-(3,4-dimethoxyphenyl)-4-[(4-methyl-1H-indol-5-yl)amino]nicotinonitrile] | 6 nM
COc1ccc(-c2cncc(C#N)c2N(C)c2ccc3[nH]ccc3c2)cc1OC [Compound 219, 5-(3,4-dimethoxyphenyl)-4-[1H-indol-5-yl(methyl)amino]nicotinonitrile] | 270 nM
Cc1c(Nc2c(C#N)cncc2-c2cc3ccccc3o2)ccc2[nH]ccc12 [Compound 222, 5-(1-benzofuran-2-yl)-4-[(4-methyl-1H-indol-5-yl)amino]nicotinonitrile] | 1 nM
N#Cc1cncc(-c2cc3cc(C=O)ccc3s2)c1Nc1cccc2[nH]ccc12 [Compound 223, 5-(5-formyl-1-benzothien-2-yl)-4-(1H-indol-4-ylamino)nicotinonitrile] | 6 nM
CN(C)Cc1ccc2sc(-c3cncc(C#N)c3Nc3cccc4[nH]ccc34)cc2c1 [Compound 224, 5-{5-[(dimethylamino)methyl]-1-benzothien-2-yl}-4-(1H-indol-4-ylamino)nicotinonitrile] | 4 nM
N#Cc1cncc(-c2ccc(O)cc2)c1Nc1cccc2[nH]ccc12 [Compound 225, 5-(4-hydroxyphenyl)-4-(1H-indol-4-ylamino)nicotinonitrile] | 5 nM
N#Cc1cncc(-c2ccc(OC[C@@H](N)Cc3ccccc3)cc2)c1Nc1cccc2[nH]ccc12 [Compound 226, 5-(4-{[(2S)-2-amino-3-phenylpropyl]oxy}phenyl)-4-(1H-indol-4-ylamino)nicotinonitrile] | 3 nM
Cc1c(Nc2c(C#N)cncc2-c2cc3cc(C=O)ccc3s2)ccc2[nH]ccc12 [Compound 227, 5-(5-formyl-1-benzothien-2-yl)-4-[(4-methyl-1H-indol-5-yl)amino]nicotinonitrile] | 1 nM
Cc1c(Nc2c(C#N)cncc2-c2cc3cc(CN4CCCCC4)ccc3s2)ccc2[nH]ccc12 [Compound 228, 4-[(4-methyl-1H-indol-5-yl)amino]-5-[5-(piperidin-1-ylmethyl)-1-benzothien-2-yl]nicotinonitrile] | 2 nM
Cc1c(Nc2c(C#N)cncc2-c2cc3cc(CO)ccc3s2)ccc2[nH]ccc12 [Compound 229, 5-[5-(hydroxymethyl)-1-benzothien-2-yl]-4-[(4-methyl-1H-indol-5-yl)amino]nicotinonitrile] | 8 nM
COc1ccc(-c2cncc(C#N)c2Nc2ccc3[nH]ccc3c2)cc1OCCN1CCOCC1 [Compound 230, 4-(1H-indol-5-ylamino)-5-[4-methoxy-3-(2-morpholin-4-ylethoxy)phenyl]nicotinonitrile] | 330 nM
COc1ccc(-c2cncc(C#N)c2Nc2ccc3[nH]ccc3c2)cc1OCCN1CCN(C)CC1 [Compound 231, 4-(1H-indol-5-ylamino)-5-{4-methoxy-3-[2-(4-methylpiperazin-1-yl)ethoxy]phenyl}nicotinonitrile] | 250 nM
COc1ccc(-c2cncc(C#N)c2Nc2ccc3[nH]ccc3c2)cc1OCCN1CCNCC1 [Compound 232, 4-(1H-indol-5-ylamino)-5-[4-methoxy-3-(2-piperazin-1-ylethoxy)phenyl]nicotinonitrile] | 200 nM
COc1ccc(-c2cncc(C#N)c2Nc2ccc3[nH]ccc3c2)cc1OCCN1CCSCC1 [Compound 233, 4-(1H-indol-5-ylamino)-5-[4-methoxy-3-(2-thiomorpholin-4-ylethoxy)phenyl]nicotinonitrile] | 180 nM
CCN1CCN(CCOc2cc(-c3cncc(C#N)c3Nc3ccc4[nH]ccc4c3)ccc2OC)CC1 [Compound 234, 5-{3-[2-(4-ethylpiperazin-1-yl)ethoxy]-4-methoxyphenyl}-4-(1H-indol-5-ylamino)nicotinonitrile] | 190 nM
COc1ccc(-c2cncc(C#N)c2Nc2ccc3[nH]ccc3c2)cc1OCCN1CCCCC1 [Compound 235, 4-(1H-indol-5-ylamino)-5-[4-methoxy-3-(2-piperidin-1-ylethoxy)phenyl]nicotinonitrile] | 240 nM
COc1ccc(-c2cncc(C#N)c2Nc2ccc3[nH]ccc3c2)cc1OCCN(C)C [Compound 236, 5-{3-[2-(dimethylamino)ethoxy]-4-methoxyphenyl}-4-(1H-indol-5-ylamino)nicotinonitrile] | 200 nM

SMILES | IC50
COc1ccc(-c2cncc(C#N)c2Nc2ccc3[nH]ccc3c2)cc1OCCN(CCO)CCO [Compound 237, 5-(3-{2-[bis(2-hydroxyethyl)amino]ethoxy}-4-methoxyphenyl)-4-(1H-indol-5-ylamino)nicotinonitrile] | 4320 nM
COc1ccc(-c2cncc(C#N)c2Nc2ccc3[nH]ccc3c2)cc1OCCN1CCC(O)CC1 [Compound 238, 5-{3-[2-(4-hydroxypiperidin-1-yl)ethoxy]-4-methoxyphenyl}-4-(1H-indol-5-ylamino)nicotinonitrile] | 210 nM
COc1ccc(-c2cncc(C#N)c2Nc2ccc3[nH]ccc3c2)cc1OCCNCc1cccnc1 [Compound 239, 4-(1H-indol-5-ylamino)-5-(4-methoxy-3-{2-[(pyridin-3-ylmethyl)amino]ethoxy}phenyl)nicotinonitrile] | 80 nM
COc1ccc(-c2cncc(C#N)c2Nc2ccc3[nH]ccc3c2)cc1OCCNCc1ccncc1 [Compound 240, 4-(1H-indol-5-ylamino)-5-(4-methoxy-3-{2-[(pyridin-4-ylmethyl)amino]ethoxy}phenyl)nicotinonitrile] | 80 nM
COc1ccc(-c2cncc(C#N)c2Nc2ccc3[nH]ccc3c2)cc1OCCNCc1ccccn1 [Compound 241, 4-(1H-indol-5-ylamino)-5-(4-methoxy-3-{2-[(pyridin-2-ylmethyl)amino]ethoxy}phenyl)nicotinonitrile] | 80 nM
COc1ccc(-c2cncc(C#N)c2Nc2ccc3[nH]ccc3c2)cc1OCCNCCc1ccccc1 [Compound 242, 4-(1H-indol-5-ylamino)-5-(4-methoxy-3-{2-[(2-phenylethyl)amino]ethoxy}phenyl)nicotinonitrile] | 20 nM
COc1ccc(-c2cncc(C#N)c2Nc2ccc3[nH]ccc3c2)cc1OCCNC1CCCC1 [Compound 243, 5-{3-[2-(cyclopentylamino)ethoxy]-4-methoxyphenyl}-4-(1H-indol-5-ylamino)nicotinonitrile] | 230 nM
COc1ccc(-c2cncc(C#N)c2Nc2ccc3[nH]ccc3c2)cc1OCCNC1CCCCC1 [Compound 244, 5-{3-[2-(cyclohexylamino)ethoxy]-4-methoxyphenyl}-4-(1H-indol-5-ylamino)nicotinonitrile] | 170 nM
COc1ccc(-c2cncc(C#N)c2Nc2ccc3[nH]ccc3c2)cc1OCCNCc1ccco1 [Compound 245, 5-(3-{2-[(2-furylmethyl)amino]ethoxy}-4-methoxyphenyl)-4-(1H-indol-5-ylamino)nicotinonitrile] | 270 nM
COc1cc(Br)c(-c2cncc(C#N)c2Nc2ccc3[nH]ccc3c2)cc1OC [Compound 246, 5-(2-bromo-4,5-dimethoxyphenyl)-4-(1H-indol-5-ylamino)nicotinonitrile] | 160 nM
COc1cc(Br)c(-c2cncc(C#N)c2Nc2ccc3[nH]ccc3c2C)cc1OC [Compound 247, 5-(2-bromo-4,5-dimethoxyphenyl)-4-[(4-methyl-1H-indol-5-yl)amino]nicotinonitrile] | 100 nM
COc1ccc(-c2cncc(C#N)c2Nc2cccc3[nH]ccc23)cc1OCCN1CCCCC1 [Compound 248, 4-(1H-indol-4-ylamino)-5-[4-methoxy-3-(2-piperidin-1-ylethoxy)phenyl]nicotinonitrile] | 50 nM
COc1ccc(-c2cncc(C#N)c2Nc2cccc3[nH]ccc23)cc1OCCNCCO [Compound 249, 5-(3-{2-[(2-hydroxyethyl)amino]ethoxy}-4-methoxyphenyl)-4-(1H-indol-4-ylamino)nicotinonitrile] | 30 nM
COc1ccc(-c2cncc(C#N)c2Nc2ccc3[nH]ccc3c2)cc1OCCNCCCc1ccccc1 [Compound 250, 4-(1H-indol-5-ylamino)-5-(4-methoxy-3-{2-[(3-phenylpropyl)amino]ethoxy}phenyl)nicotinonitrile] | 20 nM
COc1ccc(-c2cncc(C#N)c2Nc2ccc3[nH]ccc3c2)cc1OCCNCCc1ccccn1 [Compound 251, 4-(1H-indol-5-ylamino)-5-(4-methoxy-3-{2-[(2-pyridin-2-ylethyl)amino]ethoxy}phenyl)nicotinonitrile] | 40 nM
COc1ccc(-c2cncc(C#N)c2Nc2ccc3[nH]ccc3c2)cc1OCCNCCc1cccnc1 [Compound 252, 4-(1H-indol-5-ylamino)-5-(4-methoxy-3-{2-[(2-pyridin-3-ylethyl)amino]ethoxy}phenyl)nicotinonitrile] | 30 nM
COc1ccc(-c2cncc(C#N)c2Nc2ccc3[nH]ccc3c2)cc1OCCNCCc1ccncc1 [Compound 253, 4-(1H-indol-5-ylamino)-5-(4-methoxy-3-{2-[(2-pyridin-4-ylethyl)amino]ethoxy}phenyl)nicotinonitrile] | 50 nM
